Values of other authors in patent US20250387497A1, “MULTIVALENT MULTISPECIFIC CONJUGATES AND RELATED COMPOSITIONS AND METHODS OF USE” (Purdue Research Foundation, priority 2022, published 2025).

Legend:
Her2 = Her2 (Homo sapiens, UniProt P04626); conditions: read-out: binding affinity for Her2
EGFR = EGFR (Homo sapiens, UniProt P00533); conditions: read-out: binding affinity for EGFR

Sequence: FCGDGFYACYMDV [H]
- Kd (Her2): 300 nM

Sequence: YHWYGYTPQNVI [E]
- Kd (EGFR): 459 µM
